Source: US11066406B2, “Small molecule inhibitors of the JAK family of kinases” (Janssen Pharmaceutica NV, priority 2018, dated 2021)
Several values for one entry are separate records, joined by “and”; a condition that tells them apart may be missing. Equal values may be shown once. Marks after values point to notes of the source that are not given here.

Legend:
MDCK-MDR1 cell line = test: MDCK-MDR1 permeability assay; assay type: in vitro ADME; conditions: apical-to-basolateral, with P-gp inhibitor elacridar (2 μM), 60 min
Experimental: Permeability measurements were conducted according to the Cyprotex protocol using the MDCK-MDR1 cell line obtained from the NIH (Rockville, Md., USA). […] The cells in this assay form a cohesive sheet of a single cell layer filing the surface area of the culture dish, also known as a confluent monolayer, and on day four the test compound was added to the apical side of the membrane and the transport of the compound across the monolayer was monitored over a time period of 60 min.
Test compounds were dissolved in DMSO at a concentration of 10 mM. The dosing solutions were prepared by diluting test compound with assay buffer (Hanks Balanced Salt Solution), pH 7.4, at a final concentration of 5 μM. For assessment of apical to basolateral (“A-B”) permeability, buffer was removed from the apical compartment and replaced with test compound dosing solution with or without the permeability glycoprotein (“PgP”, “P-gP”, “Pgp” or “P-gp”) inhibitor elacridar (2 μM). For assessment of basolateral to apical (“B-A”) permeability, buffer was removed from the companion plate and replaced with test compound dosing solution. Incubations were carried out in duplicate at 37° C. in an atmosphere of 5% CO2 with a relative humidity of 95%. Each assay included the reference markers propranolol (high permeability) and prazosin (PgP substrate). After incubation for 60 minutes, apical and basolateral samples were diluted and test compounds quantified by LC/MS/MS using an 8-point calibration in the range 0.0039 to 3 μM with appropriate dilution of the samples (receiver dilution factor=1; donor and Co dilution factor=10). The permeability coefficient (Papp) for each compound was calculated from the following equation: Papp=(dQ/dt)/(C0×S), where dQ/dt is the rate of permeation of the drug across the cells, Co is the donor compartment concentration at time zero, and S is the area of the cell monolayer.
Papp(A-B) gives an indication of permeation extent across the cells in this assay, which is envisaged to model the transcellular transport across Pgp-expressing cells, such as Pgp-expressing gastrointestinal tract cells.

[1] = In vivo p.o. dosing (Protocols 1 and 2): plasma and colon concentrations; set-up: species or system C57BL/6 mice; conditions: mice, 25 mg/kg p.o. in 20% HPβCD; for Plasma Concentration After p.o. Dosing, Time = 0.5 h, Mean: 0.5 h post dose; for Plasma Concentration After p.o. Dosing, Time = 2 h, Mean: 2 h post dose; for Plasma Concentration After p.o. Dosing, Time = 4 h, Mean: 4 h post dose; for Colon Concentration After p.o. Dosing, Time = 4 h, Mean: colon 4 h post dose
Experimental: These protocols are described below under the heading In vivo Studies.
(§1) Three non-fasted female C57BL/6 mice were orally administered test compound at a dose of 25 mg/kg p.o. as a solution in 20% hydroxypropyl-beta-cyclodextrin (HPβCD) at a dose volume of 5 mL/kg. Blood samples were collected at 0.5, 2, and 4 h post dose via retro-orbital bleed or venipuncture of the dorsal metatarsal vein. Blood samples were collected into tubes containing anticoagulant (Heparin-Na) and placed on wet ice. The plasma fraction was separated by centrifugation and frozen at −20° C. for up to 4 h and −80° C. after 4 h unless analyzed shortly after sample collection. Colon samples were collected at 4 h post dose. From the beginning of the cecum, a 4-6 cm sample of the colon was dissected, cut open on the longitudinal axis, and the solid contents removed by flushing with 2 mL of saline. The colon was further washed by putting it in 5 mL of saline and shaken for 5 seconds. The colon sample was then patted dry, weighed, and homogenized as 1 part tissue (g) to 4 parts HPLC grade water (mL). Concentrations of the compound in plasma and colon homogenate were determined using a qualified liquid chromatography-triple quadrupole mass spectrometry (LC-MS/MS) method.
as §1, with “HPβCD” for “hydroxypropyl-beta-cyclodextrin (HPβCD)”, “or” for “or venipuncture of the”, “2 cm below” for “the beginning of”, “4” for “4-6”

[2] = In vivo intracolonic (i.c.) dosing (Protocol 3): plasma and colon concentrations; set-up: species or system C57BL/6 mice; conditions: mice, 5 mg/kg intracolonic in 20% HPβCD; for Plasma Concentration After i.c. Dosing, Time = 2 h, Mean: 2 h post dose; for Plasma Concentration After i.c. Dosing, Time = 4 h, Mean: 4 h post dose
Source text: Plasma and colon concentration results were obtained by following Protocol 1 using venipuncture of dorsal metatarsal vein bleed for Compounds (B), (C), and Examples 6 and 11. Plasma and colon concentration results were obtained by following Protocol 2 using retro-orbital bleed for Compounds (A), and Examples 1, and 3-5 and Protocol 2 using venipuncture of the dorsal metatarsal vein for Examples 2, 7-10, and 12. Plasma and colon concentration results were obtained by following Protocol 3 for Examples 1, 3 and 4. These protocols are described below under the heading In vivo Studies.
Intracolonic (IC) dose group: Following anesthesia with isoflurane by inhalation, three non-fasted female C57BL/6 mice were administered the compound intracolonically through a small incision in the abdominal wall using a syringe and needle at a dose of 5 mg/kg as a solution in 20% HPβCD at a dose volume of 1 mL/kg. Blood samples were collected at 0.5, 2, and 4 h post dose via retro-orbital bleed. Blood samples were collected into tubes containing anticoagulant (Heparin-Na) and placed on wet ice. The plasma fraction was separated by centrifugation and frozen at −20° C. for up to 4 h and −80° C. after 4 h unless analyzed shortly after sample collection. Colon samples were collected at 4 h post dose. From 2 cm below the cecum, a 4-cm sample of the colon was dissected, cut open on the longitudinal axis, and the solid contents removed by flushing with 2 mL of saline. The colon was further washed by putting it in 5 mL of saline and shaken for 5 seconds. The colon sample was then patted dry, weighed, and homogenized as 1 part tissue (g) to 4 parts HPLC grade water (mL). Concentrations of the compound in plasma and colon homogenate were determined using a qualified liquid chromatography-triple quadrupole mass spectrometry (LC-MS/MS) method. This protocol was used to evaluate IC dosing of the following test compounds: Examples 1, 3, and 4.

SMILES | MDCK-MDR1 P^eapp(A-B) @ 5 μM (MDCK-MDR1 cell line) | Plasma Concentration After p.o. Dosing, Time = 4 h, Mean [1] | also measured
N#CCC12CCC(NC(=O)Cc3nc4cnc5[nH]ccc5c4n3[C@H]3CC[C@H](CC#N)CC3)(CC1)C2 [Ex. 10, N-(4-(Cyanomethyl)bicyclo[2.2.1]heptan-1-yl)-2-(1-((1r,4r)-4-(cyanomethyl)cyclohexyl)-1,6-dihydroimidazo[4,5-d]pyrrolo[2,3-b]pyridin-2-yl)acetamide] | 1.1 10^−6 cm/sec |  | 
C[C@@H](O)c1nc2cnc3[nH]ccc3c2n1[C@H]1CC[C@H](CC#N)CC1 [C] |  | 16.7 ng/mL | Plasma Concentration After p.o. Dosing, Time = 0.5 h, Mean [1]: 547.0 ng/mL; Plasma Concentration After p.o. Dosing, Time = 2 h, Mean [1]: 130.2 ng/mL; Colon Concentration After p.o. Dosing, Time = 4 h, Mean [1]: 7776.7 ng/g
Cc1nc2cnc3[nH]ccc3c2n1[C@H]1CC[C@H](CC#N)CC1 [A] |  | 84.5 ng/mL | Plasma Concentration After p.o. Dosing, Time = 0.5 h, Mean [1]: 347.0 ng/mL; Plasma Concentration After p.o. Dosing, Time = 2 h, Mean [1]: 69.1 ng/mL; Colon Concentration After p.o. Dosing, Time = 4 h, Mean [1]: 895.0 ng/g
N#CC[C@H]1CC[C@H](n2c(CC(=O)Nc3cc[nH]n3)nc3cnc4[nH]ccc4c32)CC1 [Ex. 11, 2-(1-((1r,4r)-4-(Cyanomethyl)cyclohexyl)-1,6-dihydroimidazo[4,5-d]pyrrolo[2,3-b]pyridin-2-yl)-N-(1H-pyrazol-3-yl)acetamide] | 0.8 10^−6 cm/sec | ^∧ | Plasma Concentration After p.o. Dosing, Time = 2 h, Mean [1]: ^∧
CC(C)(O)CNC(=O)Cc1nc2cnc3[nH]ccc3c2n1[C@H]1CC[C@H](CC#N)CC1 [Ex. 1, 2-(1-((1r,4r)-4-(Cyanomethyl)cyclohexyl)-1,6-dihydroimidazo[4,5-d]pyrrolo[2,3-b]pyridin-2-yl)-N-(2-hydroxy-2-methylpropyl)acetamide] |  |  | Plasma Concentration After i.c. Dosing, Time = 2 h, Mean [2]: ^∧; Plasma Concentration After i.c. Dosing, Time = 4 h, Mean [2]: ^∧
N#CC[C@H]1CC[C@H](n2c(CC(=O)NCC3CC3)nc3cnc4[nH]ccc4c32)CC1 [Ex. 3, 2-(1-((1r,4r)-4-(Cyanomethyl)cyclohexyl)-1,6-dihydroimidazo[4,5-d]pyrrolo[2,3-b]pyridin-2-yl)-N-(cyclopropylmethyl)acetamide] | 2.3 10^−6 cm/sec and 1.6 10^−6 cm/sec |  | Plasma Concentration After i.c. Dosing, Time = 2 h, Mean [2]: ^∧; Plasma Concentration After i.c. Dosing, Time = 4 h, Mean [2]: ^∧
N#CC[C@H]1CC[C@H](n2c(CC(=O)NCC3(O)CC3)nc3cnc4[nH]ccc4c32)CC1 [Ex. 12, 2-(1-((1r,4r)-4-(Cyanomethyl)cyclohexyl)-1,6-dihydroimidazo[4,5-d]pyrrolo[2,3-b]pyridin-2-yl)-N-((1-hydroxycyclopropyl)methyl)acetamide] | 0.6 10^−6 cm/sec |  | 
N#CC[C@H]1CC[C@H](n2c(CO)nc3cnc4[nH]ccc4c32)CC1 [B] |  | 11.3 ng/mL | Plasma Concentration After p.o. Dosing, Time = 0.5 h, Mean [1]: 352.7 ng/mL; Plasma Concentration After p.o. Dosing, Time = 2 h, Mean [1]: 66.3 ng/mL; Colon Concentration After p.o. Dosing, Time = 4 h, Mean [1]: 6076.7 ng/g
CC(C)(C#N)CNC(=O)Cc1nc2cnc3[nH]ccc3c2n1[C@H]1CC[C@H](CC#N)CC1 [Ex. 7, N-(2-Cyano-2-methylpropyl)-2-(1-((1r,4r)-4-(cyanomethyl)cyclohexyl)-1,6-dihydroimidazo[4,5-d]pyrrolo[2,3-b]pyridin-2-yl)acetamide] | 1.2 10^−6 cm/sec |  | 
N#CC[C@H]1CC[C@H](n2c(CC(=O)NCC3CCOCC3)nc3cnc4[nH]ccc4c32)CC1 [Ex. 6, 2-(1-((1r,4r)-4-(Cyanomethyl)cyclohexyl)-1,6-dihydroimidazo[4,5-d]pyrrolo[2,3-b]pyridin-2-yl)-N-((tetrahydro-2H-pyran-4-yl)methyl)acetamide] | 0.9 10^−6 cm/sec and 1.1 10^−6 cm/sec | 1.7^# ng/mL | 
Cn1cc(NC(=O)Cc2nc3cnc4[nH]ccc4c3n2[C@H]2CC[C@H](CC#N)CC2)cn1 [Ex. 9, 2-(1-((1r,4r)-4-(Cyanomethyl)cyclohexyl)-1,6-dihydroimidazo[4,5-d]pyrrolo[2,3-b]pyridin-2-yl)-N-(1-methyl-1H-pyrazol-4-yl)acetamide] | 0.6 10^−6 cm/sec |  | 
N#CC[C@H]1CC[C@H](n2c(CC(=O)NC3CCOCC3)nc3cnc4[nH]ccc4c32)CC1 [Ex. 5, 2-(1-((1r,4r)-4-(cyanomethyl)cyclohexyl)-1,6-dihydroimidazo[4,5-d]pyrrolo[2,3-b]pyridin-2-yl)-N-(tetrahydro-2H-pyran-4-yl)acetamide] | 0.7 10^−6 cm/sec and 0.5 10^−6 cm/sec |  | 
N#CCC1CCC(n2c(-c3c[nH]cn3)nc3cnc4[nH]ccc4c32)CC1 (stereo not shown) [Ex. 2, 2-((1r,4r)-4-(2-(1H-Imidazol-4-yl)imidazo[4,5-d]pyrrolo[2,3-b]pyridin-1(6H)-yl)cyclohexyl)acetonitrile] | 1.6 10^−6 cm/sec |  | 
N#CC[C@H]1CC[C@H](n2c(CC(=O)NCC3(O)CCC3)nc3cnc4[nH]ccc4c32)CC1 [Ex. 8, 2-(1-((1r,4r)-4-(Cyanomethyl)cyclohexyl)-1,6-dihydroimidazo[4,5-d]pyrrolo[2,3-b]pyridin-2-yl)-N-((1-hydroxycyclobutyl)methyl)acetamide] | 0.5 10^−6 cm/sec |  | 
N#CCCNC(=O)Cc1nc2cnc3[nH]ccc3c2n1[C@H]1CC[C@H](CC#N)CC1 [Ex. 4, N-(2-Cyanoethyl)-2-(1-((1r,4r)-4-(cyanomethyl)cyclohexyl)-1,6-dihydroimidazo[4,5-d]pyrrolo[2,3-b]pyridin-2-yl)acetamide] | 0.5 10^−6 cm/sec |  | Plasma Concentration After i.c. Dosing, Time = 4 h, Mean [2]: ^∧
